Data on eight compounds can be found in ChEMBL document CHEMBL2057159, “Methylation of imidazoline related compounds leads to loss of α₂-adrenoceptor affinity. Synthesis and biological evaluation of selective I₁ imidazoline receptor ligands” (Bioorg Med Chem, 2012).

The structures appear in SMILES notation. Calls of active or inactive are those of the source. The rule behind the calls is not given here.

The target in data set [1] is T1, Alpha-2A adrenergic receptor (Homo sapiens, UniProt P08913).
T1 sequence (P08913 whole entry): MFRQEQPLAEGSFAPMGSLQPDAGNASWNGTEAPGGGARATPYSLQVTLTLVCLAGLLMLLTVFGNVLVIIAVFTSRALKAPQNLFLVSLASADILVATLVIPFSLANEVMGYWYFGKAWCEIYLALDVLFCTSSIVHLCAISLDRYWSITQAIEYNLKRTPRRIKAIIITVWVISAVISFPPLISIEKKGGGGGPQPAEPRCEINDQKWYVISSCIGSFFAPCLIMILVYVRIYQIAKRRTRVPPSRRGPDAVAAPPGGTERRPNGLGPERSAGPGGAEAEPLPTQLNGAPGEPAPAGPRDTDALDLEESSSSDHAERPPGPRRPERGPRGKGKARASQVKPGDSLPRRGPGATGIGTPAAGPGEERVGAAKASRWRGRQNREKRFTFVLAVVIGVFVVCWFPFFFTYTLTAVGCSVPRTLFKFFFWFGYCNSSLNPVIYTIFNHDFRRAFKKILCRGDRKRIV
Kind of data set: Displacement of [3H]RX821001 from human alpha2A adrenoceptor expressed in CHO cells after 60 mins […]. Format: cell-based.

The target in data set [2] is T2, Alpha-2B adrenergic receptor (Homo sapiens, UniProt P18089).
T2 sequence (P18089 whole entry): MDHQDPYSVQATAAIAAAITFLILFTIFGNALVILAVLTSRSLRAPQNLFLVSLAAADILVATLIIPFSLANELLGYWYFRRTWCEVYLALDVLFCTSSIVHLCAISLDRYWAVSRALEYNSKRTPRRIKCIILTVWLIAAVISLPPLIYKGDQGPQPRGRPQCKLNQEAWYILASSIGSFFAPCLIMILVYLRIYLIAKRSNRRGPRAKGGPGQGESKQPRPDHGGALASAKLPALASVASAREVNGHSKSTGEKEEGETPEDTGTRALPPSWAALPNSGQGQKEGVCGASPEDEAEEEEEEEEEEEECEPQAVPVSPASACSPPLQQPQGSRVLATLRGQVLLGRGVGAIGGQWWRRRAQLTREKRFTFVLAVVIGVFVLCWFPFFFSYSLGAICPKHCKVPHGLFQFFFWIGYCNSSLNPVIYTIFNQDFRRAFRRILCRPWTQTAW
Kind of data set: Displacement of [3H]RX821001 from human alpha2B adrenoceptor expressed in CHO cells after 60 mins by gamma counter. The data set is classed as cell-based.

Data set [3] has as its target T3, Alpha-2C adrenergic receptor (Homo sapiens, UniProt P18825).
T3 sequence (P18825 whole entry): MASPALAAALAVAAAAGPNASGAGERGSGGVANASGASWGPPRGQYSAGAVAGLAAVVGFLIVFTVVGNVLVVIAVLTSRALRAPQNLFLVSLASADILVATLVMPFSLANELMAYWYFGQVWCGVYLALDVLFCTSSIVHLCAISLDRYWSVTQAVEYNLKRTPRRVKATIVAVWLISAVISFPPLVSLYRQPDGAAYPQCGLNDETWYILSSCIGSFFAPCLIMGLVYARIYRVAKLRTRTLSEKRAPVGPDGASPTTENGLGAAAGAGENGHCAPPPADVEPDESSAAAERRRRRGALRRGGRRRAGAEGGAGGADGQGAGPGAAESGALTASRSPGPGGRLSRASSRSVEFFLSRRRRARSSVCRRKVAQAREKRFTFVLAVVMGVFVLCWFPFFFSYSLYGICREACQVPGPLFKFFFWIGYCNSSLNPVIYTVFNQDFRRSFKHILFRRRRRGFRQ
The experiment in a line: Displacement of [3H]RX821001 from human alpha2C adrenoceptor expressed in CHO cells after 60 mins […]. The data set is classed as cell-based.

The next data set has as its target Nischarin (Rattus norvegicus, UniProt Q4G017). The experiment in a line: Displacement of [125I]paraiodoclonidine from imidazoline I1 receptor in rat PC12 cells after 30 mins by gamma counter. (Loss of bound radioactivity is the signal in a displacement assay; it reports binding, not function.)
Data set [4] in a line: Displacement of [3H]idazoxan from imidazoline I2 receptor in New Zealand rabbit renal cortex homogenate after 60 mins […]. Also on record: species or system Oryctolagus cuniculus.
Data set [5] relates to PC-12. The experiment in a line: Selectivity ratio of pKi for human alpha2A adrenoceptor to pKi for imidazoline I1 receptor in rat PC12 cell. Format: cell-based.
Data set [6] concerns PC-12. Kind of data set: Selectivity ratio of pKi for human alpha2B adrenoceptor to pKi for imidazoline I1 receptor in rat PC12 cell. The data set is classed as cell-based.
The test system of data set [7] is PC-12. The experiment in a line: Selectivity ratio of pKi for human alpha2C adrenoceptor to pKi for imidazoline I1 receptor in rat PC12 cell. Format: cell-based.
The subject of data set [8] is PC-12. The experiment in a line: Selectivity ratio of pKi for imidazoline I2 receptor in New Zealand rabbit renal cortex to pKi for imidazoline I1 receptor in rat PC12 cell. The data set is classed as cell-based.
Data set [9] concerns Rattus norvegicus. The experiment in a line: Hypotensive activity in spontaneous hypertensive rat assessed as decrease in mean blood pressure at 10 mg/kg, iv measured continuously during 30 mins. The data set is classed as functional, organism-based. Also on record: dose 10 mg/kg.
Data set [10] relates to Rattus norvegicus. The experiment in a line: Toxicity in spontaneous hypertensive rat assessed as vasoconstrictive activity at 1 mg/kg, iv. Particulars: in vivo. Also on record: dose 1 mg/kg, route intravenous. Format: organism-based.
Data set [11] relates to Rattus norvegicus. Kind of data set: Hypotensive activity in spontaneous hypertensive rat assessed as decrease in mean blood pressure at 1 mg/kg, iv measured after 5 mins relative to control. Format: functional. The arrangement: scale not given: the % may be the effect or the level left.
The target of data set [12] is T4, Alpha-2A adrenergic receptor (Homo sapiens) (UniProt P08913).
T4 sequence (whole entry): T1 sequence (P08913 whole entry)
Kind of data set: Selectivity ratio of compound to rilmenidine for human alpha2A adrenoceptor expressed in CHO cells after 60 mins […]. Format: cell-based.

Data set [13] has as its target T5, Alpha-2B adrenergic receptor (Homo sapiens) (UniProt P18089).
T5 sequence (whole entry): T2 sequence (P18089 whole entry)
The experiment in a line: Selectivity ratio of compound to rilmenidine for human alpha2B adrenoceptor expressed in CHO cells after 60 mins […]. Format: cell-based.

Data set [14] deals with T6, Alpha-2C adrenergic receptor (Homo sapiens) (UniProt P18825).
T6 sequence (whole entry): T3 sequence (P18825 whole entry)
Kind of data set: Selectivity ratio of compound to rilmenidine for human alpha2C adrenoceptor expressed in CHO cells after 60 mins […]. The data set is classed as cell-based.

Nischarin, sequence (Q4G017 whole entry): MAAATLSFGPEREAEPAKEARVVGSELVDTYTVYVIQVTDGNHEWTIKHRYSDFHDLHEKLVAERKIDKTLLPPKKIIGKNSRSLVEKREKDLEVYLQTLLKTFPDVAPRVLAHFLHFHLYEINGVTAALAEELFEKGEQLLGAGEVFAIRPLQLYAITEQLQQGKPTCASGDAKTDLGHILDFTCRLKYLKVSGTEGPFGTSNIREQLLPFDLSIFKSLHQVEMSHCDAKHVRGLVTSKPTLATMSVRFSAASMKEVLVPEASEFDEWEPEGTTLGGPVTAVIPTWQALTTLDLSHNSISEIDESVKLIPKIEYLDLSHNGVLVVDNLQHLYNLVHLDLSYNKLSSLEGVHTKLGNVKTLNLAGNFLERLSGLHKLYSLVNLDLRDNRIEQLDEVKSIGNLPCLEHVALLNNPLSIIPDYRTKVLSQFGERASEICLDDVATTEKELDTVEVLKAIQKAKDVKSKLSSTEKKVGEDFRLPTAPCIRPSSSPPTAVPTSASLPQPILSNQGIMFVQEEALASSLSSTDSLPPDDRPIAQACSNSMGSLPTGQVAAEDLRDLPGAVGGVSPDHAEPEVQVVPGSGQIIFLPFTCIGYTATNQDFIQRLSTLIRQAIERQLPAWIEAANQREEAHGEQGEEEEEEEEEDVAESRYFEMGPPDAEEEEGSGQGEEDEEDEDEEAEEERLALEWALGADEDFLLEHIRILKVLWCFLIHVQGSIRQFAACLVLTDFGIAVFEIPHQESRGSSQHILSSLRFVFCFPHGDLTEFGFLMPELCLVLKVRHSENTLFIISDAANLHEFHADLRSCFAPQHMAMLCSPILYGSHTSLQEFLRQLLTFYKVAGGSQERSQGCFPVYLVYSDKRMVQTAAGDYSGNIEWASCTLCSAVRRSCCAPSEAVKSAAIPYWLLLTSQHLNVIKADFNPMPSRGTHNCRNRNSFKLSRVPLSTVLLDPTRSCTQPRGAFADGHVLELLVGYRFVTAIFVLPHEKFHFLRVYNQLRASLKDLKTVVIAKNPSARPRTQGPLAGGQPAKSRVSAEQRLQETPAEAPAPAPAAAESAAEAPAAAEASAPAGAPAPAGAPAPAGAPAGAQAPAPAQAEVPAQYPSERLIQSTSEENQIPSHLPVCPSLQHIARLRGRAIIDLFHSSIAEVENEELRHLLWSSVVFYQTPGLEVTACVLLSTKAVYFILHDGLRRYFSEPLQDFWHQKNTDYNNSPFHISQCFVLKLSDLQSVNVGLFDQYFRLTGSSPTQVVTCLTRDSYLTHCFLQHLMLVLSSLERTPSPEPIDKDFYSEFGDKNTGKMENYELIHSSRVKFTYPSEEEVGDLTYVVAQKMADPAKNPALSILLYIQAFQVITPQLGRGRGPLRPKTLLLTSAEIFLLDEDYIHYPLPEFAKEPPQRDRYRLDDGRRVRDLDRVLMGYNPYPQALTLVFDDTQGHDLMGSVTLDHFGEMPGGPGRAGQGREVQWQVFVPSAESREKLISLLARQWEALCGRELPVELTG

Consider `CC1CCC(=Nc2ccc(I)cc2Cl)N1` (centres undefined), for which the Ki in [1] is 2570 nM; in data set [2] it was 4170 nM; in [3] it was greater than 10000 nM; at Nischarin, 0.219 nM.
In turn, `CC1CCC(Nc2ccc(I)cc2Cl)=N1` (centres undefined) came in with a pKi in data set [4] of less than 5. In addition, the Ratio pKi in the data set on PC-12 [5] was 11700; in the data set with PC-12 [6] it was 19100; in the data set with PC-12 [7], greater than 45700; in the data set on PC-12 [8] it was greater than 45700.
As for `CC1CCC(Nc2ccccc2Cl)=N1` (centres undefined), the pKi in [4] is reported as less than 5. Further, the Ki was greater than 10000 nM in data set [1], greater than 10000 nM in data set [2], greater than 10000 nM in [3] and 132 nM on Nischarin. Moreover, the outcome in the data set with Rattus norvegicus [9] was inactive. Also, the Activity entry in the data set on Rattus norvegicus [10] is given as “Non-toxic”.
On to `Clc1cccc(Cl)c1NC1=NCCN1` [CLONIDINE], for which the pKi in data set [4] is less than 5. The Ki on Nischarin is 282 nM.
For `CC1CNC(Nc2c(Cl)cccc2Cl)=N1` (centres undefined), the pKi in data set [4] is less than 5. The Ki was 1950 nM in data set [1], 1320 nM in [2], 5750 nM in data set [3] and 0.933 nM at Nischarin. Further, the figures for the Activity in the data set on Rattus norvegicus [11] and with Rattus norvegicus [10] were 45% and “Non-toxic”, respectively.
Compound `Clc1ccccc1NC1=NCCC1` had a pKi in data set [4] of 6.1. Also, the Ki was 3020 nM in data set [1], 933 nM in data set [2], 5010 nM in data set [3] and 77.6 nM at Nischarin.
In data set [4], `C1COC(NC(C2CC2)C2CC2)=N1` [RILMENIDINE] showed a pKi of less than 5. The Ki was 36.3 nM in data set [1], 42.7 nM in data set [2] and 12.6 nM in [3].
For the compound `CC1COC(NC(C2CC2)C2CC2)=N1` (centres undefined), in data set [4], the pKi is reported as less than 5. Also, the Ki in data set [1] is 4900 nM; in data set [2] it was 2820 nM; in data set [3], greater than 10000 nM; on Nischarin, 363 nM. The Ratio in data set [12] is 135; in data set [13], 66; in data set [14] it was greater than 794. The outcome with Rattus norvegicus [9] was inactive. Besides, the Activity result in the data set with Rattus norvegicus [10] was “Non-toxic”.

Broadly, the Ki is a dissociation constant, usually derived from enzyme kinetics or from competition with a known ligand. Usually pKi stands for the negative decadic logarithm of the Ki, by convention in mol/L.
